pIC50: −log10 of the molar value. Numbered stars: 1 amine (or outer) side, 2 acyl side, 3 side chain; on linkers, the order of the positions; unused ones are H or OH. Square brackets hold non-standard residues; d marks the D form. Peptide text beside a SMILES is read from it. X1 = Cc1c(COc2ccc(C[C@H](N[*:1])C(=O)[*:2])cc2Br)cccc1-c1ccccc1
Biological target: T1, PD-1/PD-L1 interaction (Homo sapiens, UniProt Q9NZQ7)
T1 construct: purchased PerkinElmer AL356 HV/C/F
Experiment: AlphaLISA amplified luminescence proximity homogeneous assay, inhibition of PD-1/PD-L1 binding
Conditions: for pIC50: AlphaLISA

[1] = His-tagged PD-L1 and biotin-conjugated PD-1, 25 °C, 90 min

T1 sequence (Q9NZQ7 19-238 limits assumed): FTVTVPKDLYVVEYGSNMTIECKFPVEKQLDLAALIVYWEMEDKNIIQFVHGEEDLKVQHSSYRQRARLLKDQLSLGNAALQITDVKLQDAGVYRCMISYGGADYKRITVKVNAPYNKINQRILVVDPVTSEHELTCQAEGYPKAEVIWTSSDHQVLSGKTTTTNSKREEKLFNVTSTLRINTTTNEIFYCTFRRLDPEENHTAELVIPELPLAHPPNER
Text: To evaluate the binding affinities of the compounds for PD-L1, we used the amplified luminescence proximity homogeneous assay (Alpha) by using the AlphaLISA® assay kit [38]. This assay is based on photoinduced energy transfer between donor and acceptor beads conjugated to PD-1 and PD-L1, respectively (Figure S6).
In this assay, direct binding of an inhibitor to PD-L1 is detected by photoinduced energy transfer (Figure S6). Biotin-conjugated PD-1 is attached to streptavidin-coated donor beads and histidine (His)-tagged PD-L1 is attached to anti-His-conjugated acceptor beads. Photoexcitation of the donor beads at 680 nm yields singlet oxygen.
Positive and negative technical controls were included in parallel. Positive controls contained buffer (2 μL) in place of solution 1–10, and negative controls contained only the beads (2 μL each) and buffer (6 μL).
The reaction samples (10 μM) were placed in a 384-well microplate and photoirradiated at 680 nm from the top. […] IC50 values were estimated from a sigmoidal curve of fluorescence intensity vs. inhibitor concentration using a relative weighting method (1/Y^2 weighting) with GraphPad Prism 8 (GraphPad Software Inc., San Diego, CA, USA).

Row | Compound | pIC50 [1] | improvement of IC50 relative to BMS-8 (X (1.5 μM) vs BMS-8 ([…])) | pIC50 (positive control)
1 | CSCC[C@H](NC(=O)[C@H](CCCCN)NC(=O)[C@H](CC(N)=O)NC(=O)[C@H](Cc1ccc(OCc2cccc(-c3ccccc3)c2C)c(Br)c1)NC(=O)[C@H](CCCNC(=N)N)NC(=O)[C@H](CCC(=O)O)NC(=O)[C@@H](N)CS)C(=O)O [CERXNKM] (H-CER[X1]NKM-OH) | 3.51 | – | –
2 | CC(C)(C)OC(=O)[C@H](Cc1ccc(O)c(Br)c1)NC(=O)OCC1c2ccccc2-c2ccccc21 [Compound4, (S)-tert-Butyl 2-({[(9H-fluoren-9-yl)methoxy]carbonyl}amino)-3-(3-bromo-4-hydroxyphenyl)propanoate] | 2.97 | – | –
3 | Cc1c(COc2ccc(C[C@H](NC(=O)OCC3c4ccccc4-c4ccccc43)C(=O)OC(C)(C)C)cc2Br)cccc1-c1ccccc1 [Compound5, (S)-tert-Butyl 2-({[(9H-fluoren-9-yl)methoxy]carbonyl}amino)-3-{3-bromo-4-[(2-methyl-1,1’-biphenyl-3-yl)methoxy]phenyl}propanoate] | 3.05 | – | –
4 | Cc1c(COc2ccc(C[C@H](NC(=O)OCC3c4ccccc4-c4ccccc43)C(=O)O)cc2Br)cccc1-c1ccccc1 [Compound6, (S)-2-({[(9H-fluoren-9-yl)methoxy]carbonyl}amino)-3-{3-bromo-4-[(2-methyl-1,1’-biphenyl-3-yl)methoxy]phenyl}propanoic acid] | 2.85 | – | –
5 | Cc1c(COc2ccc(C[C@H](NC(=O)CN)C(=O)O)cc2Br)cccc1-c1ccccc1 [GX] | 3.35 | – | –
6 | Cc1c(COc2ccc(C[C@H](NC(=O)[C@@H](N)CCCNC(=N)N)C(=O)N[C@@H](CC(N)=O)C(=O)O)cc2Br)cccc1-c1ccccc1 [RXN] | 3.39 | – | –
7 | Cc1c(COc2ccc(C[C@H](NC(=O)[C@@H](N)Cc3c[nH]c4ccccc34)C(=O)NCC(=O)O)cc2Br)cccc1-c1ccccc1 [WXG] | 3.39 | – | –
8 | nivolumab: anti-PD-1 mAb, positive control [reference compound] | – | – | 8.29

Continued by rising pIC50 [1], values first:

Row | pIC50 [1] | improvement of IC50 relative to BMS-8 (X (1.5 μM) vs BMS-8 ([…])) | pIC50 (positive control) | Compound
9 | 2.19 | – | – | Cc1c(COc2ccc(C[C@H](N)C(=O)NCC(=O)NCC(=O)O)cc2Br)cccc1-c1ccccc1 [XGG]
10 | 2.58 | – | – | Cc1c(COc2ccc(C[C@H](N)C(=O)N[C@@H](CO)C(=O)O)cc2Br)cccc1-c1ccccc1 [XS]
11 | 3.07 | – | – | Cc1c(COc2ccc(C[C@H](N)C(=O)N[C@@H](Cc3c[nH]c4ccccc34)C(=O)O)cc2Br)cccc1-c1ccccc1 [XW]
12 | 3.51 | – | – | CC[C@H](C)[C@H](NC(=O)[C@H](CC(N)=O)NC(=O)[C@H](CC(N)=O)NC(=O)[C@H](Cc1ccc(OCc2cccc(-c3ccccc3)c2C)c(Br)c1)NC(=O)[C@H](CCCNC(=N)N)NC(=O)[C@H](Cc1c[nH]c2ccccc12)NC(=O)[C@@H](N)Cc1ccccc1)C(=O)O [FWRXNNI] (H-FWR[X1]NNI-OH)
13 | 3.51 | – | – | Cc1c(CO)cccc1-c1ccccc1 [Compound1, 3-hydroxymethyl-2-methylbiphenyl]
14 | 4.65 | – | – | Cc1c(COc2ccc(C[C@H](N)C(=O)N[C@@H](C)C(=O)O)cc2Br)cccc1-c1ccccc1 [XA]
15 | 5.68 | – | – | Cc1c(COc2ccc(C[C@H](N)C(=O)NCC(=O)O)cc2Br)cccc1-c1ccccc1 [XG]
16 | 5.82 | about five | – | Cc1c(COc2ccc(C[C@H](N)C(=O)O)cc2Br)cccc1-c1ccccc1 [X, (S)-2-amino-3-[3-bromo-4-{(2-methyl-1,1′-biphenyl-3-yl)methoxy}phenyl]propanoic acid]
